Assay results from US10912815B2, “Inhibitors of mitochondrial fission and methods of use thereof” (The Board of Trustees of the Leland Stanford Junior …, priority 2011, dated 2021).
No end group written: not given here.

Assays:
[1] = system: Primary rat dopaminergic neurons; experiment: Neurite loss of primary dopaminergic neurons exposed to MPP+ (TH staining); type: cell-based; settings: P110 1 μM, MPP+ 1 μM, FIG. 10C
Method: (§1) Primary rat dopaminergic neurons (cultured for 6 days) were treated without or with P110 (1 μM) followed by treatment with or without MPP+(1 μM). Two hrs following MPP+ treatment, the cells were stained with MITOSOX™ red (to measure mitochondrial superoxide production) and anti-TH antibody (a marker of dopaminergic neurons). Fifteen hrs after MPP+ treatment, cells were stained with anti-TH antibody and anti-Tom20 antibody (a marker of mitochondria).

[2] = system: Drp1 Ser616; experiment: Drp1 Ser616 phosphorylation in SH-SY5Y cells; type: cell-based, human
Method: Cultured human SH-SY5Y neuronal cells were treated with peptide P110 (1 μM) for 30 min prior to 1 hr incubation in the absence or presence of MPP+(1-methyl-4-phenylpyridinium, a specific mitochondrial complex I inhibitor) (2 mM) or CCCP (carbonyl cyanide m-chloro phenyl hydrazone) (10 μM). Western blot analysis of mitochondrial fractions was determined by the indicated antibodies. VDAC was used as a loading control.
The function of Drp1 is regulated at least in part by phosphorylation events.

[3] = system: Primary rat dopaminergic neurons; experiment: Mitochondrial superoxide production in primary dopaminergic neurons exposed to MPP+; type: cell-based; settings: P110 1 μM, MPP+ 1 μM, 2 hrs, FIG. 10A
Method: as §1

[4] = target: Recombinant protein Drp1 (Homo sapiens, UniProt O00429); experiment: In vitro GTPase assay, recombinant Drp1; type: biochemical
Recombinant protein Drp1, sequence (O00429 1-710 isoform O00429-3): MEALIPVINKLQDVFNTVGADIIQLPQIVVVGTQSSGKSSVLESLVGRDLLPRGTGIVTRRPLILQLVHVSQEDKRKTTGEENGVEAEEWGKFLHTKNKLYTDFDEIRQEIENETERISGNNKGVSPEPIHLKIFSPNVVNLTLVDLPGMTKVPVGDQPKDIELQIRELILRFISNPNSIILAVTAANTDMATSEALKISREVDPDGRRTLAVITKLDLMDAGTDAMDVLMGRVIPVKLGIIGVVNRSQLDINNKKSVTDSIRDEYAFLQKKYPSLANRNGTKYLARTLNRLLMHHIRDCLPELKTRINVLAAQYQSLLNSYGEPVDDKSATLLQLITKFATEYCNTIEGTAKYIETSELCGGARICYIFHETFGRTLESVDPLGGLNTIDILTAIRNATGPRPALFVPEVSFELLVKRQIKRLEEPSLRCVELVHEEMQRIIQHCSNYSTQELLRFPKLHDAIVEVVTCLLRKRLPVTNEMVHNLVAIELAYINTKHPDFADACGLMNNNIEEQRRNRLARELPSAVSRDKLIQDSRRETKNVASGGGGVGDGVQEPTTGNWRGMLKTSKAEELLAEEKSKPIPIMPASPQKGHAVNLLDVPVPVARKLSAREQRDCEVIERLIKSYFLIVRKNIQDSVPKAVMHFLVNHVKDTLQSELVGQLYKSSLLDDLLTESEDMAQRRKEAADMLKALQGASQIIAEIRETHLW
Method: First, mitochondrial fission inhibitor constructs were tested to determine what, if any, effects each peptide had on enzyme (GTPase) activity. Recombinant protein Drp1, Mfn1, OPA1 or dynamin-1 (25 ng) was incubated with the indicated modulator peptides for 30 min. GTPase activity was assayed in vitro using a GTPase assay kit (Innova Biosciences, Littleton, USA, or Novus Biologicals, Littleton, Colo.) according to manufacturer's instructions.

[5] = system: isolated mouse liver mitochondria with Drp1 recombinant protein; experiment: Superoxide production of isolated mouse liver mitochondria after addition of recombinant Drp1; type: biochemical; settings: isolated mouse liver mitochondria 50 μg, Drp1 50 ng, P110 1 μM, p<0.05, n=3, FIG. 6C
Method: Mitochondrial membrane potential was also determined using TMRM (tetramethylrhodamine methylester). Fifty μg of mitochondria were incubated with recombinant Drp1 (50 ng) followed by incubation with TMRM (0.5 μM) in the presence or absence of P110 (1 μM) or NAC (2.5 mM). Fluoresence detection was performed using black 96-well plates in a fluorescence microplate reader at 560 nm excitation and 690 nm emission and potential was assessed by quenching of the fluorescent signal. The data are presented as mean±S.E. of percentage relative to control mitochondria from three independent experiments (FIG. 6B, #, p<0.05 vs. control cells; *, p<0.05; **, P<0.01 vs. MPP+- or CCCP-treated cells). Isolated mouse liver mitochondria (50 μg) were incubated with Drp1 recombinant protein (50 ng) in the presence or absence of P110 (1 μM). A kinetic change of mitochondrial superoxide production was determined by using MITOSOX™ (red mitochondrial superoxide indicator). […] Mitochondrial membrane potential of isolated mouse liver mitochondria was determined by TMRM, as described above, in the indicated groups. […] Protein levels of cytochrome c in the mitochondria were determined by western blot analysis with anti-cytochrome c antibodies in the indicated groups (insert, FIG. 6D). Total ROS production was determined by staining SH-SY5Y cells with CM2HDCFA (1 μM […] at 37° C.) in the indicated groups. […]

[6] = system: SH-SY5Y cells; experiment: Mitochondrial superoxide production in SH-SY5Y cells (MITOSOX red); type: cell-based, human; settings: peptide 1 μM, MPP+ 2 mM 2 hrs, FIG. 6A, FIG. 7
Method: The effects of MPP+ or CCCP on translocation of Drp1 in the absence and presence of P110 was measured using confocal microscopy. Cultured SH-SY5Y cells in black 96-well plate were treated with Drp1 peptide inhibitor P110 (1 μM) 30 min prior to treatment of MPP+ (2 mM) or CCCP (5 uM). After 2 hrs of treatment, cells were stained with MITOSOX™ (red mitochondrial superoxide indicator) (5 uM, for 10 min, mitochondrial ROS) or TMRM (0.5 uM, for 20 min, MMP) at 37° C. For total ROS detection, cells were treated with MPP+ or CCCP for 24 hrs. ROS level was measured by CM-H2DCFDA (1 μM for 30 min, Invitrogen). Cells were washed with PBS for three times. The detection was performed in a fluorescence microplate reader (Tecan, Infinite M1000) according to manufacturer's instructions. Measurements were normalized to the cell number counted using Hoechst staining.
SH-SY5Y cells were treated with P110 (1 μM) followed by incubation of MPP+ (2 mM) for 2 hrs. Mitochondrial superoxide production was determined using the mitochondrial superoxide indicator, MITOSOX™ red (red mitochondrial superoxide indicator). Nuclei were stained with Hoechst (blue). This experiment included the analysis of P110 alanine-scan analogs, further determine the contribution of each of the amino acids of the P110 fission inhibitor peptide sequence on the bioactivity of the peptide.

RRRQRRKKRGYGGDLLPRGS (RRRQRRKKRGYGGDLLPRGS-NH2) [P110, TAT47-57 carrier, GG linker, Drp1 region 110 (GTPase domain) peptide DLLPRGS; C-terminus C(O)-NH2]
neurite loss of dopaminergic neurons (TH) [1]: reduced neurite loss
Drp1 Ser616 phosphorylation ([2]; SH-SY5Y exposed to MPP+ or CCCP, FIG. 3F): abolished Ser616 phosphorylation
Drp1 levels and phosphorylation under normal conditions ([2]; SH-SY5Y, no stressor): did not affect
mitochondrial ROS (superoxide) production [3]: reduced
specifically inhibited Drp1 GTPase activity ([4]; in vitro GTPase assay, n=3, first statement of b271): 30%
inhibition in the GTPase activity of recombinant Drp1 ([4]; recombinant Drp1 25 ng, 30 min incubation with peptide, FIG. 2A): 50%
Drp1-induced ROS (superoxide) elevation in the mitochondria [5]: abolished
MPP+-induced production of mitochondrial superoxide [6]: abolished
